The values that follow come from patent US8481551B2, “Gyrase and topoisomerase IV inhibitors” (Vertex Pharmaceuticals Incorporated, priority 2011, dated 2013).

As a reminder, the solubility is the concentration that dissolves in the medium under given conditions. The term MIC denotes the lowest concentration that inhibits growth of the organism. What is called AUC is the area under the concentration-time curve, a measure of exposure.

One series can be described thus: Aqueous solubility study. The note with it: aqueous buffer, thermodynamic from solid; water, pH 4.39, crystalline solid form, 96 hours at room temperature. In kind it is physicochemical. The method, then: The aqueous solubilities of compound 23 and compound W were determined according to the following procedure.
Preparation of Samples. Aqueous samples of each compound were prepared as follows. Compounds were weighed (20-30 mg compound) in 4 ml clear vials prior to adding water (0.5 mL) and stirring by magnetic stirrer. 1.0N HCl was added to the suspension to adjust the pH to the desired range. After stirring for 96 hours at room temperature, the suspension was filtered through a 0.22 micron filter (Millipore, Ultrafree centrifugal filters, Durapore PVDF 0.22 μm, Cat# UFC30GVNB). The filtrate was collected and the pH measured with a pH meter.
Preparation of Standard Solutions. […]
Solubility Analysis. Aliquots of each sample and each standard solution were analyzed by HPLC analysis (Agilent 1100, injection volume 10 μL, wavelength 271 nm, column XTerra® Phenyl 5 μm, 4.6×50 mm, Part No. 186001144, mobile phase: A: 0.1% TFA in water 0.1% TFA in AcN). […] Standard curves were obtained by plotting the average of the peak area from the HPLC versus the concentrations of the standard solutions (with appropriate corrections of the weights of the standards based on total water content of the solid as determined by elemental analysis). The concentration of each sample was calculated from the peak area of the aqueous sample from the HPLC results and the slope and intercept of the standard curves. […]

A further series deals with Enterococcus faecalis. Nature of the series: Gyrase MIC, microdilution broth method (Protocol 1). The note with it: ATCC29212. On the technique in general: Dilution methods test growth across graded concentrations, often in twofold steps.
Series [1] can be described thus: Pharmacokinetics, monkey IV study. To be noted: male, cynomolgus monkey, plasma, 5 mg/kg, Compound W dosed IV 5 mg/kg in D5W, label = analyte.

As for `CCNC(=O)Nc1nc2cc(-c3cnc(C(C)(C)OP(=O)([O-])[O-])nc3)c(F)c([C@H]3CCCO3)c2[nH]1.[Na+].[Na+]` [Compound W, disodium (R)-2-(5-(2-(3-ethylureido)-6-fluoro-7-(tetrahydrofuran-2-yl)-1H-benzo[d]imidazol-5-yl)pyrimidin-2-yl)propan-2-yl phosphate], the solubility at 96 h in “Aqueous solubility study” amounted to 250 µg/mL. For the same compound, in the series on Enterococcus faecalis, it took 1 µg/mL to inhibit growth (MIC). The AUC in series [1] (AUC) was determined as 5790 ng·h/mL; in series [1] (AUCextrap), 5830 ng·h/mL.
